From ChEMBL document CHEMBL1141251, “Anthelmintic macrolactams from Nonomuraea turkmeniaca MA7364” (2007)
Converted amounts (≈) assume the structure as drawn. The source made the active and inactive calls. The calls are words filed in the database; no cut-off is given here.

Columns and labels:
[1] = test system: Heligmosomoides polygyrus; test: Anthelmintic activity in Heligmosomoides polygyrus infected Swiss Webster mouse assessed as reduction in worm count at 50 mg/kg, sc on day 3 relative to control; format: functional; parameters: scale not given: the % may be the effect or the level left
[2] = test system: Haemonchus contortus; test: Anthelmintic activity against Haemonchus contortus assessed as reduction in L3 larval motility; format: functional

CCC1CCCNC(=O)[C@H](C)[C@@H](O[C@@H]2O[C@@H](C)[C@@H](O)[C@@H](NC)[C@H]2O)CCC(C)CCC1 (some centres undefined)
Activity ([1]; route subcutaneous): 42%
EC90 [2]: 29 µg/mL (≈ 65.5 µM)

CCC1CCCCCC[C@H](O[C@@H]2O[C@@H](C)[C@@H](O)[C@@H](NC)[C@H]2O)[C@@H](C)C(=O)NCCC1 (some centres undefined)
Activity [1]: inactive
EC90 [2]: 15 µg/mL (≈ 35 µM)
